Experimental findings from ChEMBL document CHEMBL4402608 (J Med Chem, 2020) are described below.

Some results are limits rather than exact numbers.

The target in series [1] is T1, D(2) dopamine receptor (Homo sapiens, UniProt P14416). Kind of series: Agonist activity at human D2RL expressed in CHOK1/human U2OS cells assessed as induction of beta-arrestin recruitment at 10 uM measured after 90 mins by beta-galactosidase based PathHunter assay. Format: cell-based. On the technique in general: Arrestin recruitment assays detect the binding of arrestin to an activated receptor.

A short description of series [2]: Displacement of [3H]-Flunitrazepam from rat brain GABA(A)/BzR site measured after 90 mins by microbeta scintillation counting method.
Series [3] concerns the target T1, D(2) dopamine receptor. Kind of series: Agonist activity at human D2RS expressed in CHOK1/human U2OS cells assessed as induction of beta-arrestin recruitment at 10 uM measured after 90 mins by beta-galactosidase based PathHunter assay. The format is cell-based.
The target in series [4] is T2, D(4) dopamine receptor (Homo sapiens, UniProt P21917). Description: Agonist activity at Gi/Go-coupled human D4R expressed in CHOK1 cells assessed as induction of beta-arrestin recruitment at 10 uM measured after 90 mins by beta-galactosidase based PathHunter assay. Format: cell-based.
Series [5] has as its target Atypical chemokine receptor 3 (Homo sapiens, UniProt P25106). Kind of series: Agonist activity at human PK1-tgged CXCR7 expressed in CHOK1 cells assessed as induction of beta-arrestin recruitment at 10 uM measured after 90 mins by beta-galactosidase based PathHunter assay. The format is cell-based.
In another series the test system is GABA(A)/BzR site. Kind of series: Displacement of [3H]-Flunitrazepam from rat brain GABA(A)/BzR site at 10 uM measured after 90 mins by microbeta scintillation counting method relative to control. To be noted: probe [3H]-Flunitrazepam. For orientation: Displacement assays read how much labelled ligand stays bound in the presence of the test substance.
Series [6] has as its target T2, D(4) dopamine receptor. Kind of series: Displacement of [3H]-N-methylspiperone from recombinant human D4 receptor stably expressed in HEK cell membranes measured after 90 mins by microbeta scintillation counting method.
In another series the target is D(1B) dopamine receptor (Homo sapiens, UniProt P21918).
Series [7] has as its target Sigma non-opioid intracellular receptor 1 (Homo sapiens, UniProt Q99720). Kind of series: Displacement of [3H]-pentazocine from sigma1 receptor (unknown origin) after 90 mins by microbeta scintillation counting method.
Series [8] has as its target Beta-2 adrenergic receptor (Homo sapiens, UniProt P07550). Kind of series: Displacement of [3H]-CGP12177 from recombinant human beta2 adrenergic receptor expressed in HEK Flp-In cell membranes at 10 uM measured after 90 mins by microbeta scintillation counting method relative to control. To be noted: probe [3H]-CGP12177.
Series [9] concerns the target beta3 adrenergic receptor (Homo sapiens, UniProt P13945).
Series [10] has as its target Muscarinic acetylcholine receptor M1 (Homo sapiens, UniProt P11229).
Series [11] deals with T3, Alpha-1A adrenergic receptor (Homo sapiens, UniProt P35348).
T3 sequence (P35348 whole entry): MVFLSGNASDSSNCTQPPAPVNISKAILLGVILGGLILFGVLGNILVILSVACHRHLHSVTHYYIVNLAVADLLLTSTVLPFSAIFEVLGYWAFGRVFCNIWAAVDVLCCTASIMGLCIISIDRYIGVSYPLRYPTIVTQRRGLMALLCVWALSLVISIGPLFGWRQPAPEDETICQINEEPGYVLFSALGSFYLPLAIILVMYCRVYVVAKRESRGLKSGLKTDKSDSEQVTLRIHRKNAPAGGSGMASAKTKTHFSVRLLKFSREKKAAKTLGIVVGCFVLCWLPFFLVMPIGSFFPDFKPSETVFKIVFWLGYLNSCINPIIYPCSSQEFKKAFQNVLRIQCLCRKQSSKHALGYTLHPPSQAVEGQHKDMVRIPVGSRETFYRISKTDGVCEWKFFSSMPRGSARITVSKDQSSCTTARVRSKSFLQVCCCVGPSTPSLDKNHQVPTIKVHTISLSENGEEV

Another series concerns the target Histamine H4 receptor (Homo sapiens, UniProt Q9H3N8).
For series [12], the target named is Muscarinic acetylcholine receptor M2 (Homo sapiens, UniProt P08172).
Series [13] concerns the target 5-hydroxytryptamine receptor 6 (Homo sapiens, UniProt P50406).
In series [14] the target is Muscarinic acetylcholine receptor M3 (Homo sapiens, UniProt P20309).
The target of series [15] is 5-hydroxytryptamine receptor 1D (Homo sapiens, UniProt P28221).

Usually Ki stands for the dissociation constant of the complex between target and ligand, obtained from inhibition or displacement. In general, inhibition refers to the change of the read-out against control, counted positive when it falls. As for `CCCN(CC[C@]1(O)C[C@H](NC(=O)c2ccc3ccccc3c2)C1)[C@H]1CCc2nc(N)sc2C1`, the outcome (on D(2) dopamine receptor [1]; on D(2) dopamine receptor [3]; on D(4) dopamine receptor [4]; in series [5]) was Active. Also, the Ki entry in [2] is “Not Active”; on D(4) dopamine receptor [6] it was 45 nM. In the series with GABA(A)/BzR site, this compound returned an inhibition at […], 10 µM of under 50%.

In the case of `CCCN[C@H]1CCc2nc(N)sc2C1` [PRAMIPEXOLE], the Ki is over 10 µM on D(1B) dopamine receptor; 4.45 µM in series [7]; over 10 µM in [9]; over 10 µM in series [10]; over 10 µM in [11]; over 10 µM on Histamine H4 receptor. Besides, the Ki in series [12], in [13], in series [14] and in [15] was over 10 µM in each case. Also, in series [8], the inhibition at […], 10 µM is over 50%.
